Laboratory results from article PMC6100044 (Molecules : A Journal of Synthetic Chemistry and Natural …, 2018).
Where two headings read alike, the source gives them in different places.

Experiments:
[1] = tested on: P. falciparum CQ-resistant W-2; assay: In vitro antimalarial assay (pLDH), Pf W-2 strain; assay type: cell-based, Plasmodium falciparum; conditions: for IC50: CQ-resistant strain, 72 h, pLDH readout, read-out: W-2 (CQ-R) Mean ± S.D. IC50; for Ratio IC50 cpd/IC50 DHA: W-2 strain; for SI IC50WEHI-164/IC50 cpd: selectivity index versus W-2 strain
Protocol: (§1) Compounds were dissolved in either water or DMSO and then diluted with medium to achieve the required concentrations (final DMSO concentration <1%, which is non-toxic to the parasite). […] Parasite growth was determined spectrophotometrically (OD650) by measuring the activity of the parasite lactate dehydrogenase (pLDH) according to a modification of the method of Makler in control and drug-treated cultures.
(§2) As a blank, uninfected RBCs were used for the antimalarial assays or media without cells for the cytotoxicity assays. The percent viability was plotted as a function of drug concentrations, and the curve fitting was obtained by nonlinear regression analysis using a four parameter logistic method (software Gen5 1.10 provided with the Synergy4 plate reader [Biotek]).

[2] = tested on: different strains of Plasmodium falciparum (Pf); assay: In vitro antimalarial assay (pLDH), summary over different Pf strains; assay type: cell-based; conditions: for IC50: Plasmodium falciparum, range over D10 and W-2 strains, read-out: IC50 against different strains of Plasmodium falciparum; for selectivity index (SI) with respect to WEHI-164: WEHI-164 IC50 / antimalarial IC50, over the strains
Protocol: as §1, §2

[3] = tested on: P. falciparum CQ-sensitive D10; assay: In vitro antimalarial assay (pLDH), Pf D10 strain; assay type: cell-based, Plasmodium falciparum; conditions: for IC50: CQ-sensitive strain, 72 h, pLDH readout, read-out: D10 (CQ-S) Mean ± S.D. IC50; for Ratio IC50 cpd/IC50 DHA: D10 strain; for SI IC50WEHI-164/IC50 cpd: selectivity index versus D10 strain
Protocol: as §1, §2

[4] = tested on: mouse fibrosarcoma cell line WEHI-164; assay: Cytotoxicity, MTT assay, WEHI-164; assay type: cell-based; conditions: MTT, 72 h, read-out: WEHI-164 Mean ± S.D. IC50
[5] = tested on: myelogenous leukemia cell line K562; assay: Cytotoxicity, MTT assay, K562; assay type: cell-based, human; conditions: Homo sapiens, K562; MTT assay conducted for 72 h; read-out: Mean (±S.D.) IC50 K562
Protocol: (§3) Selected compounds were carried forward for screening against the immortalized myelogenous leukemia, K562, human microvascular endothelial cells (HMEC-1) and fresh human fibroblasts HDF (Table 2) using the MTT assay, as above.
(§4) A long term microvascular endothelial cell line (HMEC-1) immortalized by SV 40 large T antigen was kindly provided by Dr. Francisco J. Candal, Center for Disease Control, Atlanta, GA, USA. […] Fibroblasts from skin biopsies were maintained in DMEM (EuroClone, Pero, Italy) supplemented with 10% fetal calf serum (HyClone, Logan, UT, USA), 2 mM glutamine, 100 U/mL of penicillin and 100 µg/mL of streptomycin.
(§5) Cells were then treated with serial dilutions of test compounds and cell proliferation evaluated using the MTT assay as previously described. […] All the tests were performed in triplicate at least three times.
as §2

[6] = tested on: human microvascular endothelial cells (HMEC-1); assay: Cytotoxicity, MTT assay, HMEC-1; assay type: cell-based; conditions: MTT assay conducted for 72 h, read-out: Mean (±S.D.) IC50 HMEC
Protocol: as §3, §4, §5, §2

[7] = tested on: fresh human dermal fibroblasts HDF; assay: Cytotoxicity, MTT assay, HDF; assay type: cell-based; conditions: Fibroblast, MTT assay conducted for 72 h, read-out: Mean (±S.D.) IC50 HDF
Protocol: as §3, §4, §5, §2

[8] = tested on: Plasmodium falciparum (Pf) W2; conditions: Pf W2 in vitro; cited from earlier work
[9] = tested on: Plasmodium falciparum (Pf) D6; conditions: Pf D6 in vitro; cited from earlier work
[10] = human; cited from earlier work
[11] = parameters: method as in earlier work; conditions: 28 (artemisone), 29 (DHA); cited from earlier work
[12] = Plasmodium falciparum, D10, 72 h

Question: Which IC50 [1] does the source give for CC1CCC2C(C)C(N3CCN(C4OC(CO)C(O)C4O)CC3)OC3OC4(C)CCC1C32OO4 (stereo not drawn) [Compound 25] here?
Answer: Its IC50 is 0.58 ± 0.3 nM.

Question: And the “Ratio IC50 cpd/IC50 DHA” value [1]?
Answer: Its value is 0.39.

Question: And the “SI IC50WEHI-164/IC50 cpd” value [1]?
Answer: Its value is 275.

Question: What about the IC50 [2] of the same compound?
Answer: The IC50 was 0.58 to 0.87 nM.

Question: What about the “selectivity index (SI) with respect to WEHI-164” value [2] of the same compound?
Answer: The value was over 195.

Question: What about the IC50 [3] of the same compound?
Answer: The IC50 was 0.66 ± 0.2 nM.

Question: What about the “Ratio IC50 cpd/IC50 DHA” value [3] of the same compound?
Answer: Its value is 0.19.

Question: And the “SI IC50WEHI-164/IC50 cpd” value [3]?
Answer: The value was 242.

Question: What about the IC50 [4] of the same compound?
Answer: Its IC50 is 160 ± 40 nM.

Question: Which results are given for CC1CCC2C(C)C(N3CCN(C4OC(CO)C(O)C(O)C4O)CC3)OC3OC4(C)CCC1C32OO4 (stereo not drawn) [Compound 19]?
Answer: IC50 [1]: 0.71 ± 0.2 nM; Ratio IC50 cpd/IC50 DHA [1]: 0.5; SI IC50WEHI-164/IC50 cpd [1]: 239; IC50 [2]: 0.58 to 0.87 nM; selectivity index (SI) with respect to WEHI-164 [2]: > 195; IC50 [3]: 0.87 ± 0.25 nM; Ratio IC50 cpd/IC50 DHA [3]: 0.26; SI IC50WEHI-164/IC50 cpd [3]: 195; IC50 [4]: 170 ± 30 nM

Question: With CC1CCC2C(C)C(N3CCN(C4OC(CO)C(OC5OC(CO)C(O)C(O)C5O)C(O)C4O)CC3)OC3OC4(C)CCC1C32OO4 (stereo not drawn) [Compound 21] as the compound, how does the IC50 [5] read?
Answer: Its IC50 is 780 ± 150 nM.

Question: What about the IC50 [6] of the same compound?
Answer: The IC50 was 2500 ± 800 nM.

Question: What about the IC50 [7] of the same compound?
Answer: Its IC50 is 534000 ± 9900 nM.

Question: What about the IC50 ([1]; Plasmodium falciparum) of the same compound?
Answer: Its IC50 is 1.5 ± 0.5 nM.

Question: What about the “Ratio IC50 cpd/IC50 DHA” value [1] of the same compound?
Answer: Its value is 1.0.

Question: What about the “SI IC50WEHI-164/IC50 cpd” value [1] of the same compound?
Answer: Its value is 166.

Question: What about the “Ratio IC50 cpd/IC50 DHA” value [3] of the same compound?
Answer: The value was 0.56.

Question: And the IC50 [3, 12]?
Answer: Its IC50 is 1.9 ± 1.1 nM.

Question: And the “SI IC50WEHI-164/IC50 cpd” value [3]?
Answer: Its value is 131.

Question: What about the IC50 ([4]; Mus musculus, WEHI-164, 72 h) of the same compound?
Answer: Its IC50 is 250 ± 90 nM.

Question: With CC1CCC2C(C)C(N3CCN(C4OC(CO)C(O)C4O)CC3)OC3OC4(C)CCC1C32OO4 (stereo not drawn) [Compound 24] as the compound, how does the IC50 [5] read?
Answer: Its IC50 is 870 ± 50 nM.

Question: What about the IC50 [6] of the same compound?
Answer: The IC50 was 2390 ± 1510 nM.

Question: And the IC50 [7]?
Answer: The IC50 was 389000 ± 8600 nM.

Question: And the IC50 [1]?
Answer: The IC50 was 4.1 ± 3.2 nM.

Question: What about the “Ratio IC50 cpd/IC50 DHA” value [1] of the same compound?
Answer: The value was 2.7.

Question: And the “SI IC50WEHI-164/IC50 cpd” value [1]?
Answer: Its value is 119.

Question: And the IC50 [3]?
Answer: The IC50 was 4.8 ± 2.9 nM.

Question: And the “Ratio IC50 cpd/IC50 DHA” value [3]?
Answer: Its value is 1.4.

Question: What about the “SI IC50WEHI-164/IC50 cpd” value [3] of the same compound?
Answer: The value was 102.

Question: And the IC50 [4]?
Answer: The IC50 was 490 ± 200 nM.

Question: Which IC50 [8] does the source give for CC1CCC2C(C)C(OC3OC(CO)C(O)C(O)C3O)OC3OC4(C)CCC1C32OO4 (stereo not drawn) [Compound 12] here?
Answer: The IC50 was 79.7 nM.

Question: What about the IC50 [9] of the same compound?
Answer: Its IC50 is 29.4 nM.

Question: With CC1CCC2C(C)C(N3CCN(C4OC(CO)C(O)C4O)CC3)OC3OC4(C)CCC1C32OO4 (stereo not drawn) [Compound 26] as the compound, how does the IC50 [1] read?
Answer: Its IC50 is 0.82 ± 0.25 nM.

Question: What about the “Ratio IC50 cpd/IC50 DHA” value [1] of the same compound?
Answer: The value was 0.55.

Question: What about the “SI IC50WEHI-164/IC50 cpd” value [1] of the same compound?
Answer: The value was 256.

Question: What about the IC50 [3] of the same compound?
Answer: Its IC50 is 1.3 ± 0.8 nM.

Question: And the “Ratio IC50 cpd/IC50 DHA” value [3]?
Answer: The value was 0.38.

Question: And the “SI IC50WEHI-164/IC50 cpd” value [3]?
Answer: The value was 161.

Question: What about the IC50 [4] of the same compound?
Answer: Its IC50 is 210 ± 10 nM.

Question: What does the source list for CC1CCC2C(C)C(N3CCN(C4CC(O)C(O)C(CO)O4)CC3)OC3OC4(C)CCC1C32OO4 (stereo not drawn) [Compound 22]?
Answer: IC50 ([1]; Plasmodium falciparum): 1.1 ± 0.4 nM; Ratio IC50 cpd/IC50 DHA [1]: 0.73; SI IC50WEHI-164/IC50 cpd [1]: 463; Ratio IC50 cpd/IC50 DHA [3]: 0.68; IC50 [3, 12]: 2.3 ± 1 nM; SI IC50WEHI-164/IC50 cpd [3]: 222; IC50 ([4]; Mus musculus, WEHI-164, 72 h): 510 ± 100 nM

Question: Which results are given for C[C@H]1[C@@H](O)O[C@@H]2O[C@@]3(C)CC[C@H]4[C@H](C)CC[C@@H]1[C@@]24OO3 [DHA 2, dihydroartemisinin, reference compound]?
Answer: half-life of antimalarial activity [10]: ~ 3 h; IC50 [5]: 2760 ± 660 nM; IC50 [6]: 1160 ± 400 nM; IC50 [7]: 88700 ± 13300 nM; IC50 [3, 12]: 3.4 ± 1.6 nM; elimination half-life [11]: ~ 1 h; plasma clearance [11]: ~ 5.4 L/h/kg; volume of distribution [11]: 7.7 L/kg; IC50 ([4]; Mus musculus, WEHI-164, 72 h): 720 ± 140 nM
